Experiments:
Assay in all cases: relative viability (nuclei count vs DMSO), 5 days (fraction); higher = more cells survive
BEN = system: BEN
In short: (§1)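 Cells from lung cancer lines were seeded into 1536-well plates and, one day later, dosed by pin tool. Treatments were either a single drug or a fixed dose of an anchor drug with five library-drug doses (not always all listed) in √10 steps. After 5 days, nuclei were stained in a one-step fixation (final 0.05% Triton X-100, 1% formaldehyde, 1 ug/ml Hoechst) and counted on 4× images, and relative viability is the treated-to-vehicle nuclei ratio, as the median of duplicate plates.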

ChaGo-K-1 = system: ChaGo-K-1
In short: as §1

EKVX = system: EKVX
In short: as §1

HCC-827 = system: HCC-827
In short: as §1

HOP-62 = system: HOP-62
In short: as §1

LCLC-103H = system: LCLC-103H
In short: as §1

LOU-NH91 = system: LOU-NH91
In short: as §1

LXF-289 = system: LXF-289
In short: as §1

NCI-H1355 = system: NCI-H1355
In short: as §1

NCI-H1437 = system: NCI-H1437
In short: as §1

NCI-H1666 = system: NCI-H1666
In short: as §1

NCI-H1993 = system: NCI-H1993
In short: as §1

NCI-H2126 = system: NCI-H2126
In short: as §1

NCI-H441 = system: NCI-H441
In short: as §1

NCI-H647 = system: NCI-H647
In short: as §1

NCI-H661 = system: NCI-H661
In short: as §1

NCI-H727 = system: NCI-H727
In short: as §1

PC-14 = system: PC-14
In short: as §1

RERF-LC-KJ = system: RERF-LC-KJ
In short: as §1

**Q.** Which results are given for `Nc1cccc2c1CN(C1CCC(=O)NC1=O)C2=O` (stereo not drawn) [Lenalidomide] + CC(C)C[C@H](NC(=O)[C@H](Cc1ccccc1)NC(=O)c1cnccn1)B(O)O [Bortezomib] (partner 0.002 µM)?
**A.** relative viability (BEN; first compound 0.253 µM): 1.04; relative viability (BEN; first compound 0.8 µM): 0.505; relative viability (BEN; first compound 2.53 µM): 1.02; relative viability (BEN; first compound 8 µM): 0.524; relative viability (ChaGo-K-1; first compound 0.253 µM): 1.07; relative viability (ChaGo-K-1; first compound 2.53 µM): 1; relative viability (ChaGo-K-1; first compound 8 µM): 1.29; relative viability (EKVX; first compound 0.253 µM): 1.04; relative viability (EKVX; first compound 0.8 µM): 0.805; relative viability (EKVX; first compound 2.53 µM): 1.17; relative viability (EKVX; first compound 8 µM): 0.856; relative viability (HCC-827; first compound 0.253 µM): 1.09; relative viability (HCC-827; first compound 0.8 µM): 0.798; relative viability (HCC-827; first compound 2.53 µM): 1.09; relative viability (HCC-827; first compound 8 µM): 1.04; relative viability (HOP-62; first compound 0.253 µM): 0.701; relative viability (HOP-62; first compound 0.8 µM): 0.417; relative viability (HOP-62; first compound 2.53 µM): 1.06; relative viability (HOP-62; first compound 8 µM): 0.722; relative viability (LCLC-103H; first compound 0.253 µM): 1.01; relative viability (LCLC-103H; first compound 0.8 µM): 0.966; relative viability (LCLC-103H; first compound 2.53 µM): 1.01; relative viability (LCLC-103H; first compound 8 µM): 0.869; relative viability (LOU-NH91; first compound 0.253 µM): 0.478; relative viability (LOU-NH91; first compound 0.8 µM): 0.433; relative viability (LOU-NH91; first compound 2.53 µM): 0.501; relative viability (LOU-NH91; first compound 8 µM): 0.522; relative viability (LXF-289; first compound 0.253 µM): 0.958; relative viability (LXF-289; first compound 0.8 µM): 0.98; relative viability (LXF-289; first compound 2.53 µM): 1.07; relative viability (LXF-289; first compound 8 µM): 1.08; relative viability (NCI-H1355; first compound 0.253 µM): 1.23; relative viability (NCI-H1355; first compound 0.8 µM): 0.426; relative viability (NCI-H1355; first compound 2.53 µM): 1.29; relative viability (NCI-H1355; first compound 8 µM): 1.03; relative viability (NCI-H1437; first compound 0.253 µM): 0.523; relative viability (NCI-H1437; first compound 0.8 µM): 0.571; relative viability (NCI-H1437; first compound 2.53 µM): 0.95; relative viability (NCI-H1437; first compound 8 µM): 0.501; relative viability (NCI-H1666; first compound 0.253 µM): 0.816; relative viability (NCI-H1666; first compound 0.8 µM): 0.544; relative viability (NCI-H1666; first compound 2.53 µM): 0.813; relative viability (NCI-H1666; first compound 8 µM): 0.762; relative viability (NCI-H1993; first compound 0.253 µM): 1.07; relative viability (NCI-H1993; first compound 0.8 µM): 0.951; relative viability (NCI-H1993; first compound 2.53 µM): 1.12; relative viability (NCI-H1993; first compound 8 µM): 0.675; relative viability (NCI-H2126; first compound 0.253 µM): 1.17; relative viability (NCI-H2126; first compound 0.8 µM): 0.971; relative viability (NCI-H2126; first compound 2.53 µM): 1.12; relative viability (NCI-H2126; first compound 8 µM): 1.1; relative viability (NCI-H441; first compound 0.253 µM): 0.347; relative viability (NCI-H441; first compound 0.8 µM): 0.383; relative viability (NCI-H441; first compound 2.53 µM): 0.529; relative viability (NCI-H441; first compound 8 µM): 0.485; relative viability (NCI-H647; first compound 0.253 µM): 0.88; relative viability (NCI-H647; first compound 0.8 µM): 0.9; relative viability (NCI-H647; first compound 2.53 µM): 1.16; relative viability (NCI-H647; first compound 8 µM): 0.772; relative viability (NCI-H661; first compound 0.253 µM): 0.7; relative viability (NCI-H661; first compound 0.8 µM): 0.75; relative viability (NCI-H661; first compound 2.53 µM): 0.794; relative viability (NCI-H661; first compound 8 µM): 0.755; relative viability (NCI-H727; first compound 0.253 µM): 0.81; relative viability (NCI-H727; first compound 2.53 µM): 1.05; relative viability (NCI-H727; first compound 8 µM): 0.791; relative viability (PC-14; first compound 0.253 µM): 0.779; relative viability (PC-14; first compound 0.8 µM): 0.802; relative viability (PC-14; first compound 2.53 µM): 0.905; relative viability (PC-14; first compound 8 µM): 0.854; relative viability (RERF-LC-KJ; first compound 0.253 µM): 1.13; relative viability (RERF-LC-KJ; first compound 0.8 µM): 0.934; relative viability (RERF-LC-KJ; first compound 2.53 µM): 1.09; relative viability (RERF-LC-KJ; first compound 8 µM): 0.974

**Q.** What does the source list for `CCNC(=O)c1noc(-c2cc(C(C)C)c(O)cc2O)c1-c1ccc(CN2CCOCC2)cc1` [Luminespib] + CC(C)C[C@H](NC(=O)[C@H](Cc1ccccc1)NC(=O)c1cnccn1)B(O)O [Bortezomib] (partner 0.002 µM)?
**A.** relative viability (BEN; first compound 0.002 µM): 0.914; relative viability (BEN; first compound 0.006325 µM): 0.542; relative viability (BEN; first compound 0.02 µM): 0.438; relative viability (BEN; first compound 0.06325 µM): 0.424; relative viability (BEN; first compound 0.2 µM): 0.239; relative viability (ChaGo-K-1; first compound 0.002 µM): 1.11; relative viability (ChaGo-K-1; first compound 0.02 µM): 0.998; relative viability (ChaGo-K-1; first compound 0.06325 µM): 0.528; relative viability (ChaGo-K-1; first compound 0.2 µM): 0.294; relative viability (EKVX; first compound 0.002 µM): 0.998; relative viability (EKVX; first compound 0.006325 µM): 1.03; relative viability (EKVX; first compound 0.02 µM): 0.852; relative viability (EKVX; first compound 0.06325 µM): 0.824; relative viability (EKVX; first compound 0.2 µM): 0.0943; relative viability (HCC-827; first compound 0.002 µM): 1.04; relative viability (HCC-827; first compound 0.006325 µM): 0.999; relative viability (HCC-827; first compound 0.02 µM): 1.11; relative viability (HCC-827; first compound 0.06325 µM): 1.22; relative viability (HCC-827; first compound 0.2 µM): 0.66; relative viability (HOP-62; first compound 0.002 µM): 0.652; relative viability (HOP-62; first compound 0.006325 µM): 0.924; relative viability (HOP-62; first compound 0.02 µM): 0.852; relative viability (HOP-62; first compound 0.06325 µM): 0.856; relative viability (HOP-62; first compound 0.2 µM): 0.0907; relative viability (LCLC-103H; first compound 0.002 µM): 1.07; relative viability (LCLC-103H; first compound 0.006325 µM): 1.01; relative viability (LCLC-103H; first compound 0.02 µM): 0.931; relative viability (LCLC-103H; first compound 0.06325 µM): 1; relative viability (LCLC-103H; first compound 0.2 µM): 0.676; relative viability (LOU-NH91; first compound 0.002 µM): 0.513; relative viability (LOU-NH91; first compound 0.006325 µM): 0.484; relative viability (LOU-NH91; first compound 0.02 µM): 0.518; relative viability (LOU-NH91; first compound 0.06325 µM): 0.451; relative viability (LOU-NH91; first compound 0.2 µM): 0.389; relative viability (LXF-289; first compound 0.002 µM): 0.969; relative viability (LXF-289; first compound 0.006325 µM): 0.951; relative viability (LXF-289; first compound 0.02 µM): 1.04; relative viability (LXF-289; first compound 0.06325 µM): 0.373; relative viability (LXF-289; first compound 0.2 µM): 0.105; relative viability (NCI-H1355; first compound 0.002 µM): 1.14; relative viability (NCI-H1355; first compound 0.006325 µM): 1.12; relative viability (NCI-H1355; first compound 0.02 µM): 0.571; relative viability (NCI-H1355; first compound 0.06325 µM): 1; relative viability (NCI-H1355; first compound 0.2 µM): 0.182; relative viability (NCI-H1437; first compound 0.002 µM): 0.511; relative viability (NCI-H1437; first compound 0.006325 µM): 0.38; relative viability (NCI-H1437; first compound 0.02 µM): 0.431; relative viability (NCI-H1437; first compound 0.06325 µM): 0.247; relative viability (NCI-H1437; first compound 0.2 µM): 0.0895; relative viability (NCI-H1666; first compound 0.002 µM): 0.871; relative viability (NCI-H1666; first compound 0.006325 µM): 0.86; relative viability (NCI-H1666; first compound 0.02 µM): 0.74; relative viability (NCI-H1666; first compound 0.06325 µM): 0.725; relative viability (NCI-H1666; first compound 0.2 µM): 0.74; relative viability (NCI-H1993; first compound 0.002 µM): 0.998; relative viability (NCI-H1993; first compound 0.006325 µM): 1.12; relative viability (NCI-H1993; first compound 0.02 µM): 0.68; relative viability (NCI-H1993; first compound 0.06325 µM): 0.816; relative viability (NCI-H1993; first compound 0.2 µM): 0.374; relative viability (NCI-H2126; first compound 0.002 µM): 1.09; relative viability (NCI-H2126; first compound 0.006325 µM): 1.03; relative viability (NCI-H2126; first compound 0.02 µM): 0.79; relative viability (NCI-H2126; first compound 0.06325 µM): 1.07; relative viability (NCI-H2126; first compound 0.2 µM): 0.823; relative viability (NCI-H441; first compound 0.002 µM): 0.566; relative viability (NCI-H441; first compound 0.006325 µM): 0.446; relative viability (NCI-H441; first compound 0.02 µM): 0.236; relative viability (NCI-H441; first compound 0.06325 µM): 0.127; relative viability (NCI-H441; first compound 0.2 µM): 0.133; relative viability (NCI-H647; first compound 0.002 µM): 0.999; relative viability (NCI-H647; first compound 0.006325 µM): 0.987; relative viability (NCI-H647; first compound 0.02 µM): 0.29; relative viability (NCI-H647; first compound 0.06325 µM): 0.0859; relative viability (NCI-H647; first compound 0.2 µM): 0.0972; relative viability (NCI-H661; first compound 0.002 µM): 0.886; relative viability (NCI-H661; first compound 0.006325 µM): 0.773; relative viability (NCI-H661; first compound 0.02 µM): 0.685; relative viability (NCI-H661; first compound 0.06325 µM): 0.527; relative viability (NCI-H661; first compound 0.2 µM): 0.182; relative viability (NCI-H727; first compound 0.002 µM): 0.802; relative viability (NCI-H727; first compound 0.006325 µM): 0.782; relative viability (NCI-H727; first compound 0.02 µM): 0.379; relative viability (NCI-H727; first compound 0.06325 µM): 0.23; relative viability (NCI-H727; first compound 0.2 µM): 0.215; relative viability (PC-14; first compound 0.002 µM): 0.956; relative viability (PC-14; first compound 0.006325 µM): 0.788; relative viability (PC-14; first compound 0.02 µM): 0.988; relative viability (PC-14; first compound 0.06325 µM): 0.314; relative viability (PC-14; first compound 0.2 µM): 0.0725; relative viability (RERF-LC-KJ; first compound 0.002 µM): 1.06; relative viability (RERF-LC-KJ; first compound 0.006325 µM): 1.13; relative viability (RERF-LC-KJ; first compound 0.02 µM): 1.06; relative viability (RERF-LC-KJ; first compound 0.06325 µM): 0.69; relative viability (RERF-LC-KJ; first compound 0.2 µM): 0.268

Reference: the supplement of paper PMC10307832
